Positions count from the first letter of the chain named. Where two headings read alike, the source gives them in different places. One block for each compound: values may come before it.
Experiments:
[1] = target: T1, hGAT3 (Homo sapiens, UniProt P48066); test: [3H]GABA competition uptake assay, wild-type hGAT3 in HEK293T cells; assay type: cell-based
T1 sequence (P48066 1-632): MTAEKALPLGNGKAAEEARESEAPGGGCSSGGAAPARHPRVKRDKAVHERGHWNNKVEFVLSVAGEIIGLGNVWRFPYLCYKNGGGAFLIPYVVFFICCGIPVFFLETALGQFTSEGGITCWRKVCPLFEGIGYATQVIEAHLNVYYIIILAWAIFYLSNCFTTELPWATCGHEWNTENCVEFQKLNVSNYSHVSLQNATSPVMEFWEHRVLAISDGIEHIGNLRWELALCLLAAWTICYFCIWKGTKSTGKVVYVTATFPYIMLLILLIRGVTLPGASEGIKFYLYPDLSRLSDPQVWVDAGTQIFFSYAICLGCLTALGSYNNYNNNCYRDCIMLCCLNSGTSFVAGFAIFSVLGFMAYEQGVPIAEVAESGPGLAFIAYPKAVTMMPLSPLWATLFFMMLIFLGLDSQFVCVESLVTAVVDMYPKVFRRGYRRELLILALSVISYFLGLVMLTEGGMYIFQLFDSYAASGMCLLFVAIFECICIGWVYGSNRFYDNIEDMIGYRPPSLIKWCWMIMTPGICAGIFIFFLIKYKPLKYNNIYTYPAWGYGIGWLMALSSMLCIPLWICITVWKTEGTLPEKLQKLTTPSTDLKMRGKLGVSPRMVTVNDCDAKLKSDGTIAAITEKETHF

[2] = target: T2, hGAT3-eGFP (Homo sapiens, UniProt P48066); test: Confocal microscopy of membrane-localized hGAT3-eGFP fluorescence; assay type: cell-based; conditions: 100 µM SR-THAP; 1 h incubation; versus buffer
T2 sequence (P48066 1-632): T1 sequence (P48066 1-632)

[3] = target: T1, hGAT3; test: FLIPR membrane potential; assay type: cell-based
[4] = target: T1, hGAT3; test: [3H]GABA uptake kinetic; assay type: cell-based; conditions: with and without preincubation
[5] = target: T3, hGAT3-C316S (Homo sapiens, UniProt P48066, C316S); test: [3H]GABA competition uptake assay, hGAT3-C316S mutant in HEK293T cells; assay type: cell-based
T3 sequence (P48066 1-632 C316S): T1 sequence (P48066 1-632) with C316S

[6] = cited from earlier work
[7] = cited from earlier work; remark: listed apart in the source
[8] = tested on: mice with stroke; conditions: cited from earlier work
[9] = cited from earlier work; remark: listed apart in the source
[10] = cited from earlier work; remark: listed apart in the source

time to equilibrium between extracellular and cytosolic compound ([1]; from preincubation time course): ≤ 15 min
IC50 ([1]; read-out: IC50, inhibition of [3H]GABA uptake by hGAT3, 120 min preincubation (with preincubation), HEK293T cells): 4.9 µM
increase in potency after 120-min preincubation ([1]; versus without preincubation): five-fold
surface expression of hGAT3 (membrane-localized eGFP fluorescence) [2]: No difference
substrate-like response / transport in FMP assay ([3]; 50 µM GABA, 20 µM SR-THAP, compared with buffer): no substrate-like response
mode of inhibition (FMP Michaelis-Menten kinetics) ([3]; absence of preincubation): non-competitive
mode of inhibition ([3H]GABA uptake kinetics) [4]: non-competitive
IC50 ([5]; read-out: IC50, inhibition of [3H]GABA uptake by hGAT3-C316S, 120 min preincubation): 10.6 µM
Structure (SMILES): COc1ccc(C(/C=C/CN2CCC[C@@H]2[C@H](O)C(=O)O)(c2ccc(OC)cc2)c2ccc(OC)cc2)cc1 [SR-THAP, (2S, 2′R)−2-hydroxy-2-(1-((E)−4,4,4-tris(4-methoxyphenyl)but-2-en-1-yl)pyrrolidin-2′-yl)acetic acid]

Structure (SMILES): COc1ccc(C(OCCN2CCC[C@H](C(=O)O)C2)(c2ccc(OC)cc2)c2ccc(OC)cc2)cc1 [(S)-SNAP-5114, (S)−1-{2-[Tris(4-methoxyphenyl)methoxy]ethyl}piperidine-3-carboxylic acid]
chemical stability [6]: poor
cellular toxicity [7]: cellular toxicity
in vivo toxicity [8]: severe in vivo toxicity
brain uptake after systemic administration [9]: limited
solubility [10]: limited

IC50 [1]: 6.9 µM
IC50 [5]: 4.2 µM
Structure (SMILES): NCCCC(=O)O [GABA, γ-Aminobutyric acid, reference compound]

Reference: paper PMC12916826 (Nature Communications, 2026)
